Test results from patent US10315990B2, “Isothiocyanate compounds and isothiocyanate XPO1 protein inhibitor drugs thereof” (DRIVINGFORCE THERAPEUTICS Co., Ltd., priority 2015, dated 2019).

Columns and labels:
Assay type in all cases: cell-based
[1] = system: SW620; assay: Inhibitory activity for high metastasis type colon cancer cell line (MTT or CCK-8); settings: Homo sapiens, SW-620; SW620, 72 hours; read-out: IC50
[2] = system: HCT116; assay: as above; settings: Homo sapiens, HCT-116; HCT116, 72 hours; read-out: IC50
[3] = system: CaSki; assay: Inhibitory activity for other high metastasis type cancer cell line (MTT or CCK-8); settings: Homo sapiens, Ca-Ski; CaSki, 72 hours; read-out: IC50
[4] = system: NCI-H1975; assay: cells; settings: Homo sapiens; NCI-H1975, 72 hours; read-out: IC50
[5] = system: NCI-H1650; assay: cells; settings: Homo sapiens; NCI-H1650, 72 hours; read-out: IC50
[6] = system: Panc-1; assay: Inhibitory activity for other high metastasis type cancer cell line (MTT or CCK-8); settings: Homo sapiens; Panc-1, 72 hours; read-out: IC50

SMILES: C[S+]([O-])CCCCN=C=S (stereo not drawn) [SFN, sulforaphane, reference compound]
- IC50 [1]: 15.1 µM
- IC50 [2]: 13.2 µM
- IC50 [3]: 11 µM
- IC50 [4]: 20.3 µM
- IC50 [5]: 18.1 µM
- IC50 [6]: 12.1 µM
